Source: patent US20220265629A1, “TREATMENT OF SYSTOLIC DYSFUNCTION AND HEART FAILURE WITH REDUCED EJECTION FRACTION WITH THE COMPOUND (R)-4-(1-((3-(DIFLUOROMETHYL)-1-METHYL-1H-PYRAZOL-4-YL)SULFONYL)-1-FLUOROETHYL)-N-(ISOXAZOL-3-YL)PIPERIDINE-1-CARBOXAMIDE” (MyoKardia, Inc., priority 2019, published 2022)

Test system: healthy subjects
Assay: Single ascending oral dose study in healthy volunteers: transthoracic echocardiography (TTE) pharmacodynamics
Type: in vivo, human
Settings: for DBP placebo-corrected change from Baseline (LS mean difference) / E/A ratio placebo-corrected change from Baseline (LS mean difference) / E/e′(lateral) placebo-corrected change from Baseline (LS mean difference) / HR placebo-corrected change from Baseline (LS mean difference) / IVCT placebo-corrected change from Baseline (LS mean difference) / IVRT placebo-corrected change from Baseline (LS mean difference) / LVEDD placebo-corrected change from Baseline (LS mean difference) / LVEDV placebo-corrected change from Baseline (LS mean difference) / LVEF placebo-corrected change from Baseline (LS mean difference) / LVESD placebo-corrected change from Baseline (LS mean difference) / LVESV placebo-corrected change from Baseline (LS mean difference) / LVFS placebo-corrected change from Baseline (LS mean difference) / LVGCS placebo-corrected change from Baseline (LS mean difference) / LVGLS placebo-corrected change from Baseline (LS mean difference) / MPI placebo-corrected change from Baseline (LS mean difference) / PEP placebo-corrected change from Baseline (LS mean difference) / Peak A placebo-corrected change from Baseline (LS mean difference) / Peak E placebo-corrected change from Baseline (LS mean difference) / SBP placebo-corrected change from Baseline (LS mean difference) / SET placebo-corrected change from Baseline (LS mean difference) / Stroke Volume placebo-corrected change from Baseline (LS mean difference): 6 hours post-dose
Procedure: To assess pharmacodynamic effects, serial echocardiograms were performed. The sonographers used in the study completed Echo protocol training and submitted an example of a study for evaluation to the core laboratory for evaluation. The core TTE lab certified that the sonographer was able to perform the TTEs at a level satisfactory for obtaining the required protocol data.
These criteria were chosen to prevent subjects from having prolongation of SET that might lead to myocardial ischemia. Dose escalation stopping criteria also included observation of a Baseline-corrected, group mean relative increase of >20% in any 2 sequential TTE assessments in at least 2 measures of LV contractility: LVOT-VTI, LVFS, LVEF, or LVSV in subjects receiving Compound I. Placebo-controlled evaluation may have been considered. For this comparison, subjects who received placebo may have been pooled across cohorts.
SET as determined by TTE was assessed using summary statistics. Observations and change from Baseline were summarized by treatment at each time point and the maximum change from Baseline determined for each subject. In addition, categorical analyses were performed on the number of subjects with a change from Baseline>50 msec and the number of subjects with a change from Baseline>75 msec in 1 or any 2 sequential TTE assessments. The relationship to Compound I plasma concentration to SET was explored. An analysis of SET placebo-adjusted change from Baseline was also performed.
As the Cmax occurred at between 4 and 6 hours in most of the subjects, the TTE obtained at 6 hours postclose was considered the best timepoint to explore the relationship between concentration and pharmacological effect. TTEs obtained at 1.5 and 3 hours after dosing were before the Cmax and at 9 hours were after the peak Cmax. Based on the preclinical data, it was considered unlikely that there would be a prolonged lag between the Cmax and peak pharmacological effect. As the exposure after the administration of the 350 mg and 525 mg doses were very similar, it was decided to not only present the results from these groups separately, but also to combine the data from these groups. By combining the data from the 2 groups, the number of subjects closed was increased from 6 to 12, thus increasing the power to observe a statistically significant change from Baseline in the TTE parameters of interest.
An analysis of placebo-corrected change from Baseline at 6 hours postclose by Compound I plasma concentration bins is presented in Table 6 below.

[1] = 350 mg and 525 mg combined, 6 hours postdose
[2] = 350 mg and 525 mg combined, 12 hours postdose
[3] = concentration exceeded 2000 ng/mL (median 2592 ng/mL)
[4] = plasma concentrations >2000 ng/mL, 6 hours postdose

Cn1cc(S(=O)(=O)[C@@](C)(F)C2CCN(C(=O)Nc3ccon3)CC2)c(C(F)F)n1 [Compound I, (R)-4-(1-((3-(difluoromethyl)-1-methyl-1H-pyrazol-4-yl)sulfonyl)-1-fluoroethyl)-N-(isoxazol-3-yl)piperidine-1-carboxamide]
LVEDD, highest observed change from Baseline (50 mg, 24 hours postdose): 0.103 (0.217) cm
LVEF, maximum mean (SD) increase (100 mg, 12 hours postdose): 4.83 (2.65) %
SET, observed mean (SD) increase (350 mg and 525 mg combined, 1.5 to 2 hours postdose): 18.0 (19.5) msec
LVEDV, mean (SD) decrease [1]: −9.98 (7.83) mL
LVESV, mean (SD) decrease [1]: −6.82 (5.99) mL
LVOT-VTI, mean (SD) increase [1]: 2.28 (1.43) cm
LVEDD, mean (SD) decrease [2]: −0.171 (0.177) cm
LVSV, mean (SD) increase [2]: 7.623 (7.842) mL
SET, largest observed mean (SD) increase (350 mg, 1.5 to 2 hours postdose): 19.2 (20.5) msec
LVOT-VTI, maximum change from Baseline (350 mg, 6 hours postdose): 2.54 (1.78) cm
LVSV, maximum mean (SD) increase (350 mg, 12 hours postdose): 10.848 (9.893) mL
LVEDV, largest mean (SD) decrease (525 mg, 6 hours postdose): −12.5 (6.96) mL
LVEF, maximum mean (SD) increase (525 mg, 6 hours postdose): 4.65 (1.45) %
LVESV, largest mean (SD) decrease (525 mg, 6 hours postdose): −9.21 (3.18) mL
LVEDD, largest observed mean (SD) decrease (525 mg, 12 hours postdose): −0.213 (0.221) cm
LVESD, largest observed mean (SD) decrease (525 mg, 12 hours postdose): −0.455 (0.357) cm
DBP placebo-corrected change from Baseline (LS mean difference) (plasma 0-1000 ng/mL): 2.277 mm Hg
E/A ratio placebo-corrected change from Baseline (LS mean difference) (plasma 0-1000 ng/mL): 0.150
E/e′(lateral) placebo-corrected change from Baseline (LS mean difference) (plasma 0-1000 ng/mL): −0.235
HR placebo-corrected change from Baseline (LS mean difference) (plasma 0-1000 ng/mL): −1.070 bpm
IVCT placebo-corrected change from Baseline (LS mean difference) (plasma 0-1000 ng/mL): 0.677 ms
IVRT placebo-corrected change from Baseline (LS mean difference) (plasma 0-1000 ng/mL): 1.526 ms
LVEDD placebo-corrected change from Baseline (LS mean difference) (plasma 0-1000 ng/mL): −0.014 cm
LVEDV placebo-corrected change from Baseline (LS mean difference) (plasma 0-1000 ng/mL): -2.210 mL
LVEF placebo-corrected change from Baseline (LS mean difference) (plasma 0-1000 ng/mL): 0.322%
LVESD placebo-corrected change from Baseline (LS mean difference) (plasma 0-1000 ng/mL): 0.025 cm
LVESV placebo-corrected change from Baseline (LS mean difference) (plasma 0-1000 ng/mL): -1.204 mL
LVFS placebo-corrected change from Baseline (LS mean difference) (plasma 0-1000 ng/mL): −0.560%
LVGCS placebo-corrected change from Baseline (LS mean difference) (plasma 0-1000 ng/mL): −1.076%
LVGLS placebo-corrected change from Baseline (LS mean difference) (plasma 0-1000 ng/mL): −0.467%
MPI placebo-corrected change from Baseline (LS mean difference) (plasma 0-1000 ng/mL): −0.007
PEP placebo-corrected change from Baseline (LS mean difference) (plasma 0-1000 ng/mL): -2.190 ms
Peak A placebo-corrected change from Baseline (LS mean difference) (plasma 0-1000 ng/mL): -3.09 cm/s
Peak E placebo-corrected change from Baseline (LS mean difference) (plasma 0-1000 ng/mL): -966000 ×10⁻⁶ cm/s
SBP placebo-corrected change from Baseline (LS mean difference) (plasma 0-1000 ng/mL): −0.623 mm Hg
SET placebo-corrected change from Baseline (LS mean difference) (plasma 0-1000 ng/mL): 10.623 ms
Stroke Volume placebo-corrected change from Baseline (LS mean difference) (plasma 0-1000 ng/mL): 2.631 mL
DBP placebo-corrected change from Baseline (LS mean difference) (plasma 1001-2000 ng/mL): 2.937 mm Hg
E/A ratio placebo-corrected change from Baseline (LS mean difference) (plasma 1001-2000 ng/mL): 0.177
E/e′(lateral) placebo-corrected change from Baseline (LS mean difference) (plasma 1001-2000 ng/mL): 0.144
HR placebo-corrected change from Baseline (LS mean difference) (plasma 1001-2000 ng/mL): 0.336 bpm
IVCT placebo-corrected change from Baseline (LS mean difference) (plasma 1001-2000 ng/mL): 1.412 ms
IVRT placebo-corrected change from Baseline (LS mean difference) (plasma 1001-2000 ng/mL): 0.148 ms
LVEDD placebo-corrected change from Baseline (LS mean difference) (plasma 1001-2000 ng/mL): −0.041 cm
LVEDV placebo-corrected change from Baseline (LS mean difference) (plasma 1001-2000 ng/mL): -6.100 mL
LVEF placebo-corrected change from Baseline (LS mean difference) (plasma 1001-2000 ng/mL): 2.176%
LVESD placebo-corrected change from Baseline (LS mean difference) (plasma 1001-2000 ng/mL): −0.159 cm
LVESV placebo-corrected change from Baseline (LS mean difference) (plasma 1001-2000 ng/mL): -4.101 mL
LVFS placebo-corrected change from Baseline (LS mean difference) (plasma 1001-2000 ng/mL): 3.549%
LVGCS placebo-corrected change from Baseline (LS mean difference) (plasma 1001-2000 ng/mL): −1.383%
LVGLS placebo-corrected change from Baseline (LS mean difference) (plasma 1001-2000 ng/mL): −1.274%
MPI placebo-corrected change from Baseline (LS mean difference) (plasma 1001-2000 ng/mL): −0.021
PEP placebo-corrected change from Baseline (LS mean difference) (plasma 1001-2000 ng/mL): -5.487 ms
Peak A placebo-corrected change from Baseline (LS mean difference) (plasma 1001-2000 ng/mL): -2.87 cm/s
Peak E placebo-corrected change from Baseline (LS mean difference) (plasma 1001-2000 ng/mL): -1.43 cm/s
SBP placebo-corrected change from Baseline (LS mean difference) (plasma 1001-2000 ng/mL): 1.132 mm Hg
SET placebo-corrected change from Baseline (LS mean difference) (plasma 1001-2000 ng/mL): 23.049 ms
Stroke Volume placebo-corrected change from Baseline (LS mean difference) (plasma 1001-2000 ng/mL): 2.509 mL
DBP placebo-corrected change from Baseline (LS mean difference) (plasma >2000 ng/mL): 1.540 mm Hg
E/A ratio placebo-corrected change from Baseline (LS mean difference) (plasma >2000 ng/mL): −0.047
E/e′(lateral) placebo-corrected change from Baseline (LS mean difference) (plasma >2000 ng/mL): −0.063
HR placebo-corrected change from Baseline (LS mean difference) (plasma >2000 ng/mL): 2.871 bpm
IVCT placebo-corrected change from Baseline (LS mean difference) (plasma >2000 ng/mL): 6.115 ms
IVRT placebo-corrected change from Baseline (LS mean difference) (plasma >2000 ng/mL): 11.986 ms
LVEDD placebo-corrected change from Baseline (LS mean difference) (plasma >2000 ng/mL): −0.115 cm
LVEDV placebo-corrected change from Baseline (LS mean difference) (plasma >2000 ng/mL): -9.678 mL
LVEF placebo-corrected change from Baseline (LS mean difference) (plasma >2000 ng/mL): 3.219%
LVESD placebo-corrected change from Baseline (LS mean difference) (plasma >2000 ng/mL): −0.306 cm
LVESV placebo-corrected change from Baseline (LS mean difference) (plasma >2000 ng/mL): -6.031 mL
LVFS placebo-corrected change from Baseline (LS mean difference) (plasma >2000 ng/mL): 6.289%
LVGCS placebo-corrected change from Baseline (LS mean difference) (plasma >2000 ng/mL): −2.854%
LVGLS placebo-corrected change from Baseline (LS mean difference) (plasma >2000 ng/mL): −1.779%
MPI placebo-corrected change from Baseline (LS mean difference) (plasma >2000 ng/mL): 0.033
PEP placebo-corrected change from Baseline (LS mean difference) (plasma >2000 ng/mL): -2.131 ms
Peak A placebo-corrected change from Baseline (LS mean difference) (plasma >2000 ng/mL): 657000 ×10⁻⁶ cm/s
Peak E placebo-corrected change from Baseline (LS mean difference) (plasma >2000 ng/mL): -5.3 cm/s
SBP placebo-corrected change from Baseline (LS mean difference) (plasma >2000 ng/mL): −1.572 mm Hg
SET placebo-corrected change from Baseline (LS mean difference) (plasma >2000 ng/mL): 25.645 ms
Stroke Volume placebo-corrected change from Baseline (LS mean difference) (plasma >2000 ng/mL): 8.197 mL
LVEDD, mean decrease [3]: 0.12 cm
LVEDV, mean decrease [3]: 9.68 mL
LVEF, mean absolute increase [3]: 3.2%
LVESD, mean decrease [3]: 0.31 cm
LVESV, mean decrease [3]: 6.03 mL
LVFS, mean absolute increase [3]: 6.3%
LVGCS, mean absolute decrease [3]: 2.85%
LVGLS, mean absolute decrease [3]: 1.78%
LVSV, mean increase [3]: 8.2%
SET, mean increase [3]: 25.7 ms
diastolic function/relaxation (E/A ratio and E/e′) (plasma concentrations >2000 ng/mL): no significant effects
SET, placebo-corrected change from Baseline (LS mean difference±SE) (plasma concentrations >2000 ng/mL (median 2425 ng/mL), 6 hours postdose): 25.6 ± 7.71 ms
IVRT (mitral inflow doppler), placebo-corrected change from Baseline (LS mean difference±SE) [4]: 12.0 ± 3.92 ms
LVEDV, placebo-corrected change from Baseline (LS mean difference±SE) [4]: -9.68 ± 2.95 mL
LVEF, placebo-corrected change from Baseline (LS mean difference±SE) [4]: 3.22±1.48%
LVESD, placebo-corrected change from Baseline (LS mean difference±SE) [4]: −0.306±0.077 cm
LVESV, placebo-corrected change from Baseline (LS mean difference±SE) [4]: -6.03 ± 1.87 mL
LVFS, placebo-corrected change from Baseline (LS mean difference±SE) [4]: 6.29±1.55%
LVGCS, placebo-corrected change from Baseline (LS mean difference±SE) [4]: -2.85 ± 0.99%
LVGLS, placebo-corrected change from Baseline (LS mean difference±SE) [4]: -1.78 ± 0.76%
stroke volume, placebo-corrected change from Baseline (LS mean difference±SE) [4]: 8.20 ± 3.99 mL
